# Starred links: 1 amine or outer side, 2 acyl side, 3 side chain; linkers in the order of their positions; H or OH if unused. Non-standard residues stand in square brackets, D forms with d. Residues, ends and D or L forms follow the SMILES beside them. *: point of attachment. X2 = O=C([C@@H]1[C@H](c2ccccc2)CCN1[*:1])[*:2]; Pro(3R-Ph) = O=C(O)[C@H]1NCC[C@@H]1c1ccccc1; Dip = N[C@H](C(=O)O)C(c1ccccc1)c1ccccc1; 2Nal = N[C@@H](Cc1ccc2ccccc2c1)C(=O)O; d2Nal = N[C@H](Cc1ccc2ccccc2c1)C(=O)O; βAsp = O=C(O)[C@H](CC(=O)[*:2])N[*:1]; Glutaryl = O=C(CCCC(=O)[*:2])[*:1]; hPhe = N[C@@H](CCc1ccccc1)C(=O)O; 3Pal = N[C@@H](Cc1cccnc1)C(=O)O; Cit = NC(=O)NCCC[C@H](N)C(=O)O; NH(3-hydroxypropyl) = OCCCN*; Suc = O=C(CCC(=O)[*:2])[*:1]; Tle = CC(C)(C)[C@H](N)C(=O)O; X1 = CC(=O)c1ccccc1C(=O)*
# Biological target: T1, laminin/nidogen interaction (laminin P1, recombinantly produced human nidogen) (Homo sapiens, UniProt P14543)
# T1 construct: made in house; host or cells: HEK-293
# T1 sequence (P14543 29-1247): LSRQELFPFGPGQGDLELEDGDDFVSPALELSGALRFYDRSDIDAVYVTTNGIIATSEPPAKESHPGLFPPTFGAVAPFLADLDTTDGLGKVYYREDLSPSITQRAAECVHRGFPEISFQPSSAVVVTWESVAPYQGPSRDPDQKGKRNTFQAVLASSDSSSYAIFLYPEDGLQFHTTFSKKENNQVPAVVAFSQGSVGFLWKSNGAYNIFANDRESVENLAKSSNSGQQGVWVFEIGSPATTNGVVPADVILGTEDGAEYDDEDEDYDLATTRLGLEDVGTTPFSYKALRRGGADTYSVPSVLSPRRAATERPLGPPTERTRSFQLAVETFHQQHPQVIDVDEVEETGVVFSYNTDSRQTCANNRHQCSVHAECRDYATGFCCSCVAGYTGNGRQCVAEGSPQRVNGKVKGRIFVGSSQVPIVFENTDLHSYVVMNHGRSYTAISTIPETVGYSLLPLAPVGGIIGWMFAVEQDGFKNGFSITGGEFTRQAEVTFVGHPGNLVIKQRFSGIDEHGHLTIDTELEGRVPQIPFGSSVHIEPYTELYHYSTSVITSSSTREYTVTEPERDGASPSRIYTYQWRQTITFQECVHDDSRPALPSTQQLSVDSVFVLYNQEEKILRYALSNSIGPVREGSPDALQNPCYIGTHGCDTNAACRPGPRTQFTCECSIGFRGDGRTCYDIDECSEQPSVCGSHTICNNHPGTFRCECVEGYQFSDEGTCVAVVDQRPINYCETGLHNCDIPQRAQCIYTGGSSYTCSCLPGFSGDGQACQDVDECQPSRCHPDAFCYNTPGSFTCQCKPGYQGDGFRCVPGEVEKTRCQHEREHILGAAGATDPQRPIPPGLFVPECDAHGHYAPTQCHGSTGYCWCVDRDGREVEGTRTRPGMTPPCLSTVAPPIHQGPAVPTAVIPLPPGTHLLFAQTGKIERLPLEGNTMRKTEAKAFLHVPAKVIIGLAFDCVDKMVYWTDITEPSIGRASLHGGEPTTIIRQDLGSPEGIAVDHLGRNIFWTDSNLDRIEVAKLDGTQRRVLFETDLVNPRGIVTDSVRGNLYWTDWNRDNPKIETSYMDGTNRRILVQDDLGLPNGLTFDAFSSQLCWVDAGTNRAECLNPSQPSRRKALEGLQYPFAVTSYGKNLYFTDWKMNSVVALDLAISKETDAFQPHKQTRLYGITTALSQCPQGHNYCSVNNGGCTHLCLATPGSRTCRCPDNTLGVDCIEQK
# Assay: HTS screening assay (time-resolved fluorescence), inhibition of laminin/nidogen binding
# Conditions: results table 1.3, synthesized compounds 1 to 43; read-out: IC50
# Experimental: 5) The compound stocks were preincubated with nidogen (10 μl compound stock to 90 μl nidogen solution) and the assay was performed as described in the attached protocol, yielding a final screening concentration of 2.7 μM per compound. The isolation of laminin P1 from human placenta, human nidogen from transfected HEK-293 cells and mouse laminin γ1III 3-5 from HEK-293 cells is described in WO 98/31709. 3.1.1. HTS screening assay (highly sensitive assay variant): Time-Resolved Fluorescence Assay Coating of test tubes Microtiter plates (for example FluoroNunc®) were coated with 75 μl of a 0.1 μg/ml solution of laminin P1 (in 0.159 g of Na2CO3, 0.293 g of NaHCO3, 0.02 g of NaN3/liter, pH 9.2) at room temperature for 1 hour. The solution was then tipped off, and free binding sites were blocked by incubation with 0.5% BSA (in 7.9 g of NaCl, 1.2 g of Na2HPO4, 0.31 g of KCl, 0.23 g of NaH2PO4, 0.04% Tween 20/liter, pH 7.2) at room temperature for 0.5 hour. Completion of the blocking reaction was followed by decantation of the solution and washing once with 250 μl of washing buffer (PBS/0.04% Tween). Sequential inhibition In parallel with the coating, a preincubation of 85-100 μl of a 0.25 nM nidogen solution (recombinantly produced human nidogen) with inhibitor or standard was carried out in a separate reaction vessel (1 hour at room temperature in 7.9 g of NaCl, 1.2 g of Na2HPO4, 0.31 g of KCl, 0.23 g of NaH2PO4, 0.04% Tween 20/liter, 0.5% BSA, pH 7.2). 75 μl of the preincubation (nidogen+inhibitor or standard) were transferred into the coated wells of the microtiter plate and incubated at room temperature for 1 hour. This was followed by washing twice with PBS/0.04% Tween. Detection of the bound nidogen took place by incubation (at room temperature) for 1 hour with 75 μl of a specific antibody preparation obtained from yolks of eggs from a chicken immunized with human nidogen. The IgY fraction was used in a dilution of 1:500 in PBS/0.04% Tween. The complex of nidogen and specifically bound antibodies was, after washing twice with PBS/0.04% Tween, detected by adding anti-chicken IgY-biotin (75 μl of a 1:2500 dilution; Promega, Madison, Wis. 53711, 608-274-4330). An incubation time of 1 hour and washing twice with PBS/0.04% Tween were followed for this purpose by incubation with streptavidin-europium (Wallac; 1 hour at room temperature) and washing twice with PBS/0.04% Tween. It was finally possible, after adding 100 μl of enhancement solution (Wallac) and shaking for 5 minutes, to measure a fluorescence signal in a Victor multilabel counter using the europium protocol. The relation between the amount, of bound nidogen in the solutions with inhibitor and that of nidogen without added inhibitor was found.
row,SMILES,IC50 [nM]
1,"CC(C)[C@H](NC(=O)[C@H](C)NC(=O)[C@H](CC(N)=O)NC(=O)[C@@H](NC(=O)[C@@H](N)CC(=O)O)C(c1ccccc1)c1ccccc1)C(=O)NCC(=O)NCCCO [Compound 15, L-Aspartyl-L-(3,3-diphenyl)alanyl-L-asparaginyl-L-alanyl-L-valyl-glycine-3-hydroxypropylamide] (H-D[Dip]NAVG-{NH(3-hydroxypropyl)})",26300
2,"CC(C)[C@H](NC(=O)[C@H](CO)NC(=O)[C@H](CC(N)=O)NC(=O)[C@@H]1[C@H](c2ccccc2)CCN1C(=O)[C@@H](N)CC(=O)O)C(=O)NCC(=O)NCCCO [Compound 16, L-Aspartyl-L-(3S)-phenylprolyl-L-asparaginyl-L-seryl-L-valyl-glycine-3-hydroxypropylamide] (H-D[X2]NSVG-{NH(3-hydroxypropyl)})",4280
3,"CC(C)[C@H](NC(=O)[C@H](CO)NC(=O)[C@H](CC(N)=O)NC(=O)[C@@H]1[C@@H](c2ccccc2)CCN1C(=O)[C@@H](N)CC(=O)O)C(=O)NCC(=O)NCCCO [Compound 17, L-Aspartyl-L-(3R)-phenylprolyl-L-asparaginyl-L-seryl-L-valyl-glycine-3-hydroxypropylamide] (H-D[Pro(3R-Ph)]NSVG-{NH(3-hydroxypropyl)})",2270
4,"CC(C)[C@H](NC(=O)[C@H](CO)NC(=O)[C@H](CC(N)=O)NC(=O)[C@H](Cc1cccnc1)NC(=O)[C@@H](N)CC(=O)O)C(=O)NCC(=O)NCCCO [Compound 18, L-Aspartyl-L-3-(3-pyridyl)alanyl-L-asparaginyl-L-seryl-L-valyl-glycine-3-hydroxypropylamide] (H-D[3Pal]NSVG-{NH(3-hydroxypropyl)})",25000
5,"CC(C)[C@H](NC(=O)[C@H](CO)NC(=O)[C@H](CC(N)=O)NC(=O)[C@@H](Cc1ccc2ccccc2c1)NC(=O)[C@@H](N)CC(=O)O)C(=O)NCC(=O)NCCCO [Compound 19, L-Aspartyl-D-3-(2-naphthyl)alanyl-L-asparaginyl-L-seryl-L-valyl-glycine-3-hydroxypropylamide] (H-D[d2Nal]NSVG-{NH(3-hydroxypropyl)})",25000
6,"CC(C)[C@H](NC(=O)[C@H](CO)NC(=O)[C@H](CC(N)=O)NC(=O)[C@H](CCc1ccccc1)NC(=O)[C@@H](N)CC(=O)O)C(=O)NCC(=O)NCCCO [Compound 20, L-Aspartyl-L-homophenylalanyl-L-asparaginyl-L-seryl-L-valyl-glycine-3-hydroxypropylamide] (H-D[hPhe]NSVG-{NH(3-hydroxypropyl)})",32500
7,"CC(C)[C@H](NC(=O)[C@H](CO)NC(=O)[C@H](CC(N)=O)NC(=O)[C@H](Cc1ccc2ccccc2c1)NC(=O)[C@@H](N)CC(=O)O)C(=O)NCC(N)=O [Compound 21, L-Aspartyl-L-3-(2-naphthyl)alanyl-L-asparaginyl-L-seryl-L-valyl-glycine-amide] (H-D[2Nal]NSVG-NH2)",340
8,"CC(C)[C@H](NC(=O)[C@H](CO)NC(=O)[C@H](CC(N)=O)NC(=O)[C@H](Cc1ccc2ccccc2c1)NC(=O)[C@@H](N)CC(=O)O)C(N)=O [Compound 22, L-Aspartyl-L-3-(2-naphthyl)alanyl-L-asparaginyl-L-seryl-L-valine-amide] (H-D[2Nal]NSV-NH2)",180
9,CC(=O)c1ccccc1C(=O)N[C@@H](Cc1ccc2ccccc2c1)C(=O)N[C@@H](CC(N)=O)C(=O)N[C@@H](CO)C(=O)N[C@H](C(=O)NCC(=O)NCCCO)C(C)C [Compound 23] (X1-[2Nal]NSVG-{NH(3-hydroxypropyl)}),1490
10,"CC(C)[C@H](NC(=O)[C@H](CO)NC(=O)[C@H](CC(N)=O)NC(=O)[C@H](Cc1ccc2ccccc2c1)NC(=O)C[C@H](N)C(=O)O)C(=O)NCC(=O)NCCCO [Compound 25, L-β-Aspartyl-L-3-(2-naphthyl)alanyl-L-asparaginyl-L-seryl-L-valyl-glycine-3-hydroxypropylamide] (βAsp-[2Nal]NSVG-{NH(3-hydroxypropyl)})",230
11,"CC(C)[C@H](NC(=O)[C@H](CO)NC(=O)[C@H](CC(N)=O)NC(=O)[C@H](Cc1ccc2ccccc2c1)NC(=O)CCCC(=O)O)C(=O)NCC(=O)NCCCO [Compound 26, Glutaryl-L-3-(2-naphthyl)alanyl-L-asparaginyl-L-seryl-L-valyl-glycine-3-hydroxypropylamide] (Glutaryl-[2Nal]NSVG-{NH(3-hydroxypropyl)})",450
12,"CC(C)[C@H](NC(=O)[C@H](CO)NC(=O)[C@H](CC(N)=O)NC(=O)[C@H](Cc1ccc2ccccc2c1)NC(=O)[C@H](CC(=O)O)NC(=O)[C@@H](N)CCCNC(N)=O)C(=O)NCC(=O)NCCCO [Compound 27, L-Citrulyl-L-aspartyl-L-3-(2-naphthyl)alanyl-L-asparaginyl-L-seryl-L-valyl-glycine-3-hydroxypropylamide] (H-[Cit]D[2Nal]NSVG-{NH(3-hydroxypropyl)})",440
13,"CC(C)[C@H](NC(=O)[C@H](CO)NC(=O)[C@H](CC(N)=O)NC(=O)[C@H](Cc1ccc2ccccc2c1)NC(=O)[C@H](CC(=O)O)NC(=O)[C@@H](N)CCCNC(=N)N)C(=O)NCC(=O)NCCCO [Compound 28, L-Arginyl-L-aspartyl-L-3-(2-naphthyl)alanyl-L-asparaginyl-L-seryl-L-valyl-glycine-3-hydroxypropylamide] (H-RD[2Nal]NSVG-{NH(3-hydroxypropyl)})",150
14,"CC(C)[C@H](NC(=O)[C@H](CO)NC(=O)[C@H](CC(N)=O)NC(=O)[C@H](Cc1ccc2ccccc2c1)NC(=O)[C@H](CC(=O)O)NC(=O)[C@@H](N)CCCCN)C(=O)NCC(=O)NCCCO [Compound 29, L-Lysyl-L-aspartyl-L-3-(2-naphthyl)alanyl-L-asparaginyl-L-seryl-L-valyl-glycine-3-hydroxypropylamide] (H-KD[2Nal]NSVG-{NH(3-hydroxypropyl)})",240
15,"CC(C)[C@H](NC(=O)[C@H](C)NC(=O)[C@H](CC(N)=O)NC(=O)[C@H](Cc1ccc2ccccc2c1)NC(=O)CCC(=O)O)C(=O)NCC(=O)NCCCO [Compound 30, Succinyl-L-3-(2-naphthyl)alanyl-L-asparaginyl-L-alanyl-L-valyl-glycine-3-hydroxypropylamide] (Suc-[2Nal]NAVG-{NH(3-hydroxypropyl)})",250
16,"C[C@H](NC(=O)[C@H](CC(N)=O)NC(=O)[C@H](Cc1ccc2ccccc2c1)NC(=O)CCC(=O)O)C(=O)N[C@H](C(N)=O)C(C)(C)C [Compound 32, Succinyl-L-3-(2-naphthyl)alanyl-L-asparaginyl-L-alanyl-L-2-tert.butyl-glycine-amide] (Suc-[2Nal]NA[Tle]-NH2)",170

# — patent US6365572B1, “Low molecular weight peptide derivatives as inhibitors of the laminin/nidogen interaction” (Aventis Pharma Deutschland GmbH, priority 1999, dated 2002)
